Reference: US4734418A, “Quinazoline compounds and antihypertensives” (priority 1984, dated 1988)
Like-named read-outs stand apart in the source and are kept apart here.

Columns and labels:
[1] = tested on: Spontaneously Hypertensive Rats; assay: Test 1: antihypertensive effects (systolic tail artery blood pressure) and heart rate in spontaneously hypertensive rats, oral; format: in vivo, rat (male, SHR); settings: for change in vivo at 1 mg/kg: Rattus norvegicus; for Change (%) in heart rate: maximum value
Summary of the method: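 Male SHRs aged 20 weeks or older (350-430 g), with systolic pressure of 180 mmHg or higher, were used in groups of 3-4. Compounds in 0.5% methylcellulose were given orally, mostly at 1 mg/Kg. Systolic tail-artery blood pressure and heart rate were measured together as percent change.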

Mouse = assay: Test 2: acute toxicity, mouse, oral; format: in vivo, male ddy-mice; settings: fourteenth day
Description: (§1) The acute toxicity of certain compounds of this invention were studied in the following manner.
(§2) Namely, male ddy-mice of 5 weeks of age and male Wister rats of 8 weeks of age were fasted for 18 hours and used in groups each of which was constituted of 4-5 of mice or rats. The compounds were each dissolved or suspended in a 0.5% methylcellulose solution and administered orally (P.O.). On the fourteenth day after the administration, their toxicity were judged.
(§3) Each numeral set indicates the number of dead animals/the number of teste
(§4) animals. Hyphens (--) indicate that no tests were effected.

Rat = assay: Test 2: acute toxicity, rat, oral; format: in vivo, male Wister rats; settings: fourteenth day
Description: as §1, §2, §3, §4

[2] = SHR, oral 1 mg/Kg, 1 hour, read-out: Antihypertensive effects, change (%) in blood pressure, 1 hour later
[3] = SHR, oral 1 mg/Kg, 3 hours, read-out: Antihypertensive effects, change (%) in blood pressure, 3 hours later
[4] = SHR, oral 1 mg/Kg, 6 hours, read-out: Antihypertensive effects, change (%) in blood pressure, 6 hours later
[5] = SHR, oral 1 mg/Kg, 24 hours, read-out: Antihypertensive effects, change (%) in blood pressure, 24 hours later

For `COc1cc2nc(N3CCN(C(=O)C4CCCO4)CC3)nc(N)c2cc1OC` (stereo not shown) [Terazosin, terazosin, reference compound], the change in vivo at 1 mg/kg ([1]; po, 1 h, read-out: Antihypertensive effects, change (%) in blood pressure, 1 hour later) was -22.4%, the change in vivo at 1 mg/kg ([1]; po, 3 h, read-out: Antihypertensive effects, change (%) in blood pressure, 3 hours later) was -25.9% and the change in vivo at 1 mg/kg ([1]; po, 6 h, read-out: Antihypertensive effects, change (%) in blood pressure, 6 hours later) was -23.4%. The change in vivo at 1 mg/kg ([1]; po, 24 h, read-out: Antihypertensive effects, change (%) in blood pressure, 24 hours later) was -5.4%, the “Change (%) in heart rate” value ([1]; SHR, oral 1 mg/Kg) was “+7.2%” and the “Acute Toxicity, number of dead animals/number of tested animals” value (Mouse; 1 g/Kg P.O.) was 0/5. For the same compound, the “Acute Toxicity, number of dead animals/number of tested animals” value (Mouse; 3 g/Kg P.O.) was 1/5.
With `COC(=O)c1cnc(N2CCN(c3nc(N)c4cc(OC)c(OC)cc4n3)CC2)nc1NC(C)C` [Example 62] the change in vivo at 1 mg/kg [1, 2] was -1.4%, the change in vivo at 1 mg/kg [1, 3] was -24% and the change in vivo at 1 mg/kg [1, 4] was -31.3%. For the same compound, the change in vivo at 1 mg/kg [1, 5] was -21.2%, the “Change (%) in heart rate” value ([1]; SHR, oral 1 mg/Kg) was “+7.6%” and the “Acute Toxicity, number of dead animals/number of tested animals” value (Mouse; 1 g/Kg P.O.) was 0/5. The “Acute Toxicity, number of dead animals/number of tested animals” value (Rat; 1 g/Kg P.O.) was 0/5.
`CCNC(=O)c1cnc(N2CCN(c3nc(N)c4cc(OC)c(OC)cc4n3)CC2)nc1NCC` [Example 66] showed a change in vivo at 1 mg/kg [1, 2] of -18%, a change in vivo at 1 mg/kg [1, 3] of -23.7% and a change in vivo at 1 mg/kg [1, 4] of -28.9%. The change in vivo at 1 mg/kg [1, 5] was -16%, the “Change (%) in heart rate” value ([1]; SHR, oral 1 mg/Kg) was “+3.8%” and the “Acute Toxicity, number of dead animals/number of tested animals” value (Mouse; 1 g/Kg P.O.) was 0/5.
With `CCCC(=O)N1CCCN(c2nc(N)c3cc(OC)c(OC)cc3n2)CC1` [Example E-643, Bunazosin, reference compound] the change in vivo at 1 mg/kg [1, 2] was -4.8%, the change in vivo at 1 mg/kg [1, 3] was -12% and the change in vivo at 1 mg/kg [1, 4] was -13.5%. For the same compound, the change in vivo at 1 mg/kg [1, 5] was -6.7%, the “Change (%) in heart rate” value ([1]; SHR, oral 1 mg/Kg) was “+8.8%” and the “Acute Toxicity, number of dead animals/number of tested animals” value (Mouse; 1 g/Kg P.O.) was 0/5. For the same compound, the “Acute Toxicity, number of dead animals/number of tested animals” value (Rat; 1 g/Kg P.O.) was 2/4.
`CCNc1nc(N2CCN(c3nc(N)c4cc(OC)c(OC)cc4n3)CC2)ncc1C(=O)OC.Cl` [Example 2, 4-Amino-6,7-dimethoxy-2-(4-(4-ethylamino-5-methoxycarbonylpyrimidine-2-yl)piperazino)quinazoline hydrochloride] was tested, and the change in vivo at 1 mg/kg [1, 2] was -9%, the change in vivo at 1 mg/kg [1, 3] was -23.9% and the change in vivo at 1 mg/kg [1, 4] was -38.8%. The change in vivo at 1 mg/kg [1, 5] was -16.4%, the “Change (%) in heart rate” value ([1]; SHR, oral 1 mg/Kg) was “+18.4%” and the “Acute Toxicity, number of dead animals/number of tested animals” value (Mouse; 1 g/Kg P.O.) was 0/5. The “Acute Toxicity, number of dead animals/number of tested animals” value (Mouse; 3 g/Kg P.O.) was 0/5, the “Acute Toxicity, number of dead animals/number of tested animals” value (Rat; 1 g/Kg P.O.) was 0/5 and the “Acute Toxicity, number of dead animals/number of tested animals” value (Rat; 3 g/Kg P.O.) was 0/5.
For `CCN1CCC(=O)c2cnc(N3CCN(c4nc(N)c5cc(OC)c(OC)cc5n4)CC3)nc21` [Example 21], the change in vivo at 1 mg/kg [1, 2] was -17.2%, the change in vivo at 1 mg/kg [1, 3] was -23.2% and the change in vivo at 1 mg/kg [1, 4] was -23.6%. The change in vivo at 1 mg/kg [1, 5] was -3.4%, the “Change (%) in heart rate” value ([1]; SHR, oral 1 mg/Kg) was “+7.4%” and the “Acute Toxicity, number of dead animals/number of tested animals” value (Mouse; 1 g/Kg P.O.) was 0/4.
`CCN1Cc2nc(N3CCN(c4nc(N)c5cc(OC)c(OC)cc5n4)CC3)ncc2C1=O` [Example 23] was tested, and the change in vivo at 1 mg/kg [1, 2] was -11.7%, the change in vivo at 1 mg/kg [1, 3] was -21.9% and the change in vivo at 1 mg/kg [1, 4] was -27%. For the same compound, the change in vivo at 1 mg/kg [1, 5] was -2.6%, the “Change (%) in heart rate” value ([1]; SHR, oral 1 mg/Kg) was “+23.1%” and the “Acute Toxicity, number of dead animals/number of tested animals” value (Mouse; 1 g/Kg P.O.) was 0/5. For the same compound, the “Acute Toxicity, number of dead animals/number of tested animals” value (Mouse; 3 g/Kg P.O.) was 0/5.
Work on `COc1cc2nc(N3CCN(c4ncc5c(n4)N(C(C)C)C(=O)C5)CC3)nc(N)c2cc1OC` [Example 30] yielded a change in vivo at 1 mg/kg [1, 2] of -7.4%, a change in vivo at 1 mg/kg [1, 3] of -24.7% and a change in vivo at 1 mg/kg [1, 4] of -32.1%. For the same compound, the change in vivo at 1 mg/kg [1, 5] was -8.8%, the “Change (%) in heart rate” value ([1]; SHR, oral 1 mg/Kg) was “+11.7%” and the “Acute Toxicity, number of dead animals/number of tested animals” value (Mouse; 1 g/Kg P.O.) was 0/5.
`CCOC(=O)c1cnc(N2CCN(c3nc(N)c4cc(OC)c(OC)cc4n3)CC2)nc1C` [Example 39] was tested, and the change in vivo at 1 mg/kg [1, 2] was -4.4%, the change in vivo at 1 mg/kg [1, 3] was -12.7% and the change in vivo at 1 mg/kg [1, 4] was -7.3%. For the same compound, the change in vivo at 1 mg/kg [1, 5] was 1.5%, the “Change (%) in heart rate” value ([1]; SHR, oral 1 mg/Kg) was “+2.2%” and the “Acute Toxicity, number of dead animals/number of tested animals” value (Mouse; 1 g/Kg P.O.) was 0/5.
`CCN1CCc2nc(N3CCN(c4nc(N)c5cc(OC)c(OC)cc5n4)CC3)ncc2C1=O` [Example 17] gave a change in vivo at 1 mg/kg [1, 2] of 0%, a change in vivo at 1 mg/kg [1, 3] of -20.2% and a change in vivo at 1 mg/kg [1, 4] of -27.9%. The change in vivo at 1 mg/kg [1, 5] was -12%, the “Change (%) in heart rate” value ([1]; SHR, oral 1 mg/Kg) was “+10.8%” and the “Acute Toxicity, number of dead animals/number of tested animals” value (Mouse; 1 g/Kg P.O.) was 0/5.
